Experimental findings from US7754866B2 (Arena Pharmaceuticals, Inc., priority 1997, dated 2010) are described below.

Data set [1] concerns the target T1, mutated human 5HT2C receptor (AP-1) (Homo sapiens, UniProt P28335, S310K).
T1 construct: expressed in transfected cells; host or cells: COS7 cells, pCMV vector, transient
T1 sequence (P28335 33-458 S310K): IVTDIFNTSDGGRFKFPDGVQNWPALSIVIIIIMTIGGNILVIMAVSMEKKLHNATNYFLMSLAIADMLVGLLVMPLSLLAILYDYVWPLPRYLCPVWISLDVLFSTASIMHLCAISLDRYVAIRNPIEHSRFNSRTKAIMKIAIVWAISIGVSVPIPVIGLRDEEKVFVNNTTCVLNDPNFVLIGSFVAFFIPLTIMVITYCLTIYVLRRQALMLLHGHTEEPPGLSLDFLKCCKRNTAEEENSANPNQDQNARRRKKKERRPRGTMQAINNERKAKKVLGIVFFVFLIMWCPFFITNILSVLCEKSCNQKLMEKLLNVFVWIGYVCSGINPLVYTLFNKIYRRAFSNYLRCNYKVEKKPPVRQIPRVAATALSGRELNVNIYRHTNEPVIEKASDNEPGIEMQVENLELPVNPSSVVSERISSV
Description: Competitive binding assay, [3H]mesulergine, AP-1. Conditions: Competitive Binding AP-1 ([3H]mesulergine) IC50 Value (μM), 1 nM [3H]mesulergine, COS7 membranes.

For data set [2], the target named is T2, wild type human 5HT2A receptor (Homo sapiens, UniProt P28223).
T2 construct: expressed in transfected cells; host or cells: COS-7 cells, pCMV vector
T2 sequence (P28223 whole entry T25N/H452Y): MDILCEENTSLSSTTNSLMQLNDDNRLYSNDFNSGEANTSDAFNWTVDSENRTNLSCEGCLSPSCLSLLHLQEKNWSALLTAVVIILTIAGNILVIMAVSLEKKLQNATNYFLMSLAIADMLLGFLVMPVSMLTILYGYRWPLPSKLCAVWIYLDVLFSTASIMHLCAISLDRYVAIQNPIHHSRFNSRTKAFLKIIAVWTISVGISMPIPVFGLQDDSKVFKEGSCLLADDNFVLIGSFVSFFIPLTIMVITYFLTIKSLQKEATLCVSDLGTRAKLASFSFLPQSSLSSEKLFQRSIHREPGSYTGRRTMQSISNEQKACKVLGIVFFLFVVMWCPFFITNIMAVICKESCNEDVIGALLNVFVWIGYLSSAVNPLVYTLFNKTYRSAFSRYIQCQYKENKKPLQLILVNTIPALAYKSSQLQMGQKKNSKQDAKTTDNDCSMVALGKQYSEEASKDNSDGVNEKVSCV
Description: Competitive binding assay, [3H]LSD, WT 5HT2A.

Data set [3] has as its target T3, human mutated 5HT2A receptor, AP-3 (Homo sapiens, UniProt P28223, T25N).
T3 construct: Inositol Phosphate Accumulation AP-3 IC50 Value (nM); other: several concentrations; IP3 % of Control; other: one concentration of 10 μM, triplicate; control without test compound
The data set is described as follows: Inositol phosphate accumulation assay, AP-3.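 Note: transfected 293 cells prelabeled with 3H-inositol, exposed to compound 120 min at 37 °C with LiCl and pargyline, inositol trisphosphates isolated by anion exchange and counted by scintillation.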 Type of data set: cell-based.

The target of data set [4] is T4, 5HT2A receptors (fourth layer of the cerebral cortex) (Rattus norvegicus, UniProt P14842).
T4 construct: from tissue; host or cells: horizontal sections of Sprague-Dawley rat brain, cerebral cortex
T4 sequence (P14842 whole entry): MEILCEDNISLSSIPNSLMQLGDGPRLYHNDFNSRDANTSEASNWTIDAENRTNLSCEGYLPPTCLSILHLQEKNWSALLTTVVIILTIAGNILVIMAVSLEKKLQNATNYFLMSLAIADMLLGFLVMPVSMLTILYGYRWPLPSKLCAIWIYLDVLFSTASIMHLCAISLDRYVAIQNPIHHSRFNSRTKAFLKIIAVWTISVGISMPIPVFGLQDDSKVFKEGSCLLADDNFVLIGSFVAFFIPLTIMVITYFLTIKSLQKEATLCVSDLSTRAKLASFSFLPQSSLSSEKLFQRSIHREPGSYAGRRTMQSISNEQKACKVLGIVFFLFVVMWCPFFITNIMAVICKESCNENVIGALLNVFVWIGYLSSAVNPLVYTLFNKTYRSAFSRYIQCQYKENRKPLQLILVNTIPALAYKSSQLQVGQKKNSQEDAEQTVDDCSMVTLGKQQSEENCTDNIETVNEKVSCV
The data set is described as follows: I125-LSD displacement from rat brain sections, cerebral cortex. Type of data set: binding, Sprague-Dawley rats. To be noted: 1 micromolar compound, 1 nanomolar I125-LSD, autoradiography.

In data set [5] the test system is dopamine D2 receptors (caudate nucleus). The data set is described as follows: I125-LSD displacement from rat brain sections, caudate nucleus. The data set is classed as binding, Sprague-Dawley rats. To be noted: 1 micromolar compound, 1 nanomolar I125-LSD, autoradiography.
The target in data set [6] is T5, human mutated 5HT2A receptor, AP-3 (Homo sapiens, UniProt P28223, T25N, form not given).
T5 construct: rows headed: inverse agonist activity at the human 5HT2A receptor; other: summary statement; fused on or other part: Possibly intracellular loop 3 and cytoplasmic tail of human 5-HT2C (P28335), if the statement rests on AP-3
T5 sequence (P28223 whole entry T25N, looked up, form open, the tested form may be a part): as the sequence (P28223 whole entry T25N/H452Y) above, with Y452H counted along it
Description: Inositol phosphate accumulation assay, AP-3.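 Note: transfected 293 cells prelabeled with 3H-inositol, exposed to compound 120 min at 37 °C with LiCl and pargyline, inositol trisphosphates isolated by anion exchange and counted by scintillation.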 The data set is classed as cell-based. Conditions: summary statement.

For data set [7], the system named is amphetamine-stimulated locomotion. The data set is described as follows: Amphetamine-stimulated locomotor activity. Type of data set: in vivo, Sprague-Dawley rats. To be noted: rats, s.c. 0.1, 1.0, 5.0 mg/kg; with exception of the highest dose (10 mg/kg); d-amphetamine sulfate 1.0 mg/kg. An excerpt: A 5HT2A receptor antagonist or inverse agonist is expected to decrease amphetamine-stimulated locomotion without affecting baseline locomotion See, for example, Soresnon, et al, 266(2) J. Pharmacol. Exp. Ther. 684 (1993). […] For the following study, the following parameters and protocol were utilized:
Adult male Sprague-Dawley rats were utilized for these studies. Animals were housed in groups of 2-3 in hanging plastic cages with food and water available at all times. Animals were weighed and handled for at least one day prior to surgery and throughout the studies. For these studies, Vehicle consisted of 90% ethanol (100%) and 10% water.
A San Diego Instruments Flex Field apparatus was used to quantify baseline and amphetamine-stimulated locomotor activity. This apparatus consists of four 16″×16″ clear plastic open fields. Photocell arrays (16 in each dimension) interfaced with a personal computer to automatically quantify activity. Several measures of activity can be assessed with the apparatus, including total photocell beam breaks. Animals (vehicle control and Compound treated) were injected s.c. 30 minutes prior to initiation of analysis. Following this 30 minute period, animals were placed individually into an open field and baseline activity was assessed for 30 minutes (habituation phase). […]

The target of data set [8] is T6, constitutively active mutant human 5HT2C receptor AP-1 (Homo sapiens, UniProt P28335, S310K).
T6 construct: expressed in transfected cells; host or cells: COS7 cells, pCMV vector, transient
T6 sequence (P28335 33-458 S310K): T1 sequence (P28335 33-458 S310K)
The data set is described as follows: [35S]GTPγS binding assay with membranes of COS7 cells expressing AP-1. Type of data set: biochemical.

The target in data set [9] is T7, endogenous human 5-HT2C receptor (Homo sapiens, UniProt P28335).
T7 sequence (P28335 33-458): T1 sequence (P28335 33-458 S310K) with K278S

Where [10] appears, read: Inositol Phosphate Accumulation AP-3 IC50 Value (μM).
[11] abbreviates: competitive binding using LSD, read-out: WT 5HT2A LSD IC50.
The mark [12] stands for this setting: several concentrations, read-out: IP3 AP-3 IC50.
Where [13] appears, read: 12.5 μg COS7 membranes expressing AP-1, 1 μM GDP, eight concentrations in triplicate, read-out: IC50 (nM) in GTP-γ-[35S] Assay.

Positions count from the first letter of the chain named. Read-outs that look alike come from different tables or passages of the source. Some results are limits rather than exact numbers.

T3 sequence (P28223 whole entry T25N, looked up): as the sequence (P28223 whole entry T25N/H452Y) above, with Y452H counted along it

In the case of `COc1ccc(OC(=O)Nc2cccc(-c3nn(C)cc3Br)c2)cc1` [Compound 116100, N-[3-(4-bromo-1-methylpyrazol-3-yl)phenyl][4-methoxyphenoxy]carboxamide], the melting point (commonly the temperature, or range, at which the solid turns liquid) lay in the range of 140.3 to 141.8 °C. Besides, the IC50 – broadly, the concentration that gives 50% inhibition – in data set [1] is 1.8 µM. In [2], this molecule showed an IC50 of less than 1 nM. The molecule also came in with an IC50 in [3] (setting [10]) of 0.0003 µM. Further, in data set [4], the “displacement of I125-LSD from the cortex (5HT2A)” value is “selectively displace”. Also, the “displacement of I125-LSD from the caudate (dopamine D2)” value in data set [5] is “not the caudate”.

For the molecule `Cn1cc(Br)c(-c2cccc(NC(=O)c3ccc(OC(F)(F)F)cc3)c2)n1` [Compound 116101, N-[3-(4-bromo-1-methylpyrazol-3-yl)phenyl][4-trifluoromethoxyphenyl]carboxamide], the melting point lay within 138.6 to 139.6 °C.

Regarding `Cn1cc(Br)c(-c2cccc(NC(=O)c3cccs3)c2)n1` [Compound 116102, N-[3-(4-bromo-1-methylpyrazol-3-yl)phenyl][2-thienyl]carboxamide], the melting point is 127.8 to 128.6 °C. Further, the IC50 in [1] is 2.8 µM. Besides, the “inverse agonist activity at the human 5HT2A receptor” value in data set [6] is listed as “potent inverse agonist”. Also, in data set [7], the “amphetamine-stimulated locomotion (photobeam breaks)” value was “decrease”.

In turn, `Cn1cc(Br)c(-c2cccc(NC(=O)NCc3ccc(OC(F)(F)F)cc3)c2)n1` [Compound 116115] had a melting point of 144.6 to 145.8 °C. For the same molecule, the IC50 in [1] was 1.2 µM.

The molecule `Cn1cc(Br)c(-c2cccc(NC(=O)c3ccc(Cl)cc3)c2)n1` [Compound 116120, N-[3-(4-bromo-1-methylpyrazol-3-yl)phenyl][4-chlorophenyl]carboxamide] gave a melting point of 184.4 to 184.8 °C. For the same molecule, the IC50 in data set [1] worked out at 1.2 µM.

For the molecule `COc1cccc(CC(=O)Nc2cccc(-c3nn(C)cc3Br)c2)c1` [Compound 116175, N-[3-(4-bromo-1-methylpyrazol-3-yl)phenyl]-2-(3-methoxyphenyl)acetamide], the IC50 in data set [2] (setting [11]) worked out at 625 nM; in data set [3] (setting [12]) it was 0.108 µM.

In the case of `Cn1cc(Br)c(-c2cccc(NC(=O)Cc3ccccc3F)c2)n1` [Compound 116176, N-[3-(4-bromo-1-methylpyrazol-3-yl)phenyl]-2-(2-fluorophenyl)acetamide], the IC50 came to 662 nM in [2] (setting [11]) and 0.129 µM in [3] (setting [12]).

For `Cn1cc(Br)c(-c2cccc(NC(=O)Cc3ccc([N+](=O)[O-])cc3)c2)n1` [Compound 116177, N-[3-(4-bromo-1-methylpyrazol-3-yl)phenyl]-2-(4-nitrophenyl)acetamide], the IC50 in data set [2] (setting [11]) was determined as 108 nM; in [3] (setting [12]), 0.061 µM.

For the molecule `COc1ccccc1CC(=O)Nc1cccc(-c2nn(C)cc2Br)c1` [Compound 116178, N-[3-(4-bromo-1-methylpyrazol-3-yl)phenyl]-2-(2-methoxyphenyl)acetamide], the IC50 in data set [2] (setting [11]) came to 2300 nM; in data set [3] (setting [12]), 0.165 µM.

For `Cn1cc(Br)c(-c2cccc(NC(=O)NCc3ccc(F)cc3)c2)n1` [Compound 116182, N-[3-(4-bromo-1-methylpyrazol-3-yl)phenyl]-[{(4-fluorophenyl)methyl}amino]carboxamide], the IC50 in data set [2] (setting [11]) was 132 nM; in data set [3] (setting [12]), 0.089 µM.

On to `Cn1cc(Br)c(-c2cccc(NC(=O)OC(C)(C)C)c2)n1` [Compound 116192], for which the IC50 turned out to be 14 nM in [2] and 0.057 µM in data set [3] (setting [10]).

Regarding `COc1ccc(CCNC(=O)Nc2cccc(-c3nn(C)cc3Br)c2)cc1` [Compound 116194, N-[3-(4-bromo-1-methylpyrazol-3-yl)phenyl][{2-(4-methoxyphenyl)ethyl}amino]carboxamide], the IC50 in [2] (setting [11]) came out at 61 nM; in [3] (setting [12]), 0.032 µM.

As to `CSc1ccc2c(c1)C(N1CCN(C)CC1)Cc1ccccc1S2` (stereo not shown) [Methiothepin], in [8] (setting [13]), the IC50 worked out at 20.4 nM.

In the case of `CC[C@@H](CO)NC(=O)[C@@H]1C=C2c3cccc4c3c(cn4C)C[C@H]2N(C)C1` [Methysergide], the IC50 in data set [8] worked out at 6.1 nM.

For the molecule `Clc1ccc2c(c1)N=C(N1CCNCC1)c1ccccc1N2` [Normethylclozapin], the IC50 in data set [8] (setting [13]) turned out to be 21.4 nM.

As to `Cc1nc2sccn2c(=O)c1CCN1CCC(=C(c2ccc(F)cc2)c2ccc(F)cc2)CC1` [Ritanserin], the IC50 in [8] (read-out: IC50 (nM) in GTP-γ-[35S] Assay) is 19.4 nM.

`CN1CCN2c3ccccc3Cc3ccccc3C2C1` (stereo not shown) [mianserin]: the “effect on basal constitutive binding of [35S]GTPγS” value in [9] was “partial inverse agonist”. Besides, in data set [9] (30 μM), the “inhibition of serotonin-stimulated [35S]GTPγS binding” value was “completely inhibited”.

Take `O=C(CCCN1CCC2(CC1)C(=O)NCN2c1ccccc1)c1ccc(F)cc1` [spiperone, reference compound]: the “displacement of I125-LSD from the cortex (5HT2A)” value in data set [4] is “displaces”. The “displacement of I125-LSD from the caudate (dopamine D2)” value in data set [5] is “displaces”.
